Assay results: article PMC6901909, “Synergy Pattern of Short Cationic Antimicrobial Peptides Against Multidrug-Resistant Pseudomonas aeruginosa” (Frontiers in Microbiology, 2019)
In brackets after ≈: the same amount, converted by molar mass. Peptide text beside a SMILES is read from it.

Assays:
Experiment in all cases: microbe, parasite or virus in culture
Type in all cases: cell-based, Pseudomonas aeruginosa
P. aeruginosa PA01-wt = conditions: -wt, 18 h
Method: (§1) We selected six different P. aeruginosa isolates that were described as MDR and had been isolated from clinical and municipal waste water ([Schwartz et al., 2006]). The minimal inhibitory concentration (MIC) was determined in a microdilution assay using Mueller-Hinton (MH) broth following a previously published protocol ([Wiegand et al., 2008]). Briefly, a twofold serial dilution of the antibiotics and peptides were prepared and added to a bacteria solution, resulting in 2–5 10^5 CFU/ml. The microtiter plates (polypropylene, Corning) were incubated for 18 h at 37°C and MICs were taken visually.

MDR P. aeruginosa PA253 = conditions: MDR PA253, 18 h
Method: as §1

MDR P. aeruginosa PA 919 = conditions: MDR PA 919, 18 h
Method: as §1

MDR P. aeruginosa PA 910 = conditions: MDR PA 910, 18 h
Method: as §1

Structure (SMILES)	MIC against PA01 wt (P. aeruginosa PA01-wt)	MIC against MDR isolates of PA, PA253 (MDR P. aeruginosa PA253) [µM]	MIC against MDR isolates of PA, PA919 (MDR P. aeruginosa PA 919) [µM]	MIC against PA910 in μM (peptides, Table 4) (MDR P. aeruginosa PA 910) [µM]
CC[C@H](C)[C@H](NC(=O)[C@H](CCCNC(=N)N)NC(=O)[C@H](CC(C)C)NC(=O)[C@H](CCCNC(=N)N)NC(=O)[C@@H](N)C(C)C)C(=O)N[C@@H](CCCNC(=N)N)C(=O)N[C@H](C(=O)N[C@@H](C)C(=O)N[C@H](C(=O)N[C@H](C(=O)N[C@@H](CCCNC(=N)N)C(=O)N[C@@H](C)C(N)=O)[C@@H](C)CC)C(C)C)C(C)C [Bac034] (H-VRLRIRVAVIRA-NH2)	32 µM (≈ 45.5 µg/mL)	64	32	
CC[C@H](C)[C@H](N)C(=O)N[C@@H](CC(C)C)C(=O)N[C@@H](CCCCN)C(=O)N[C@@H](Cc1c[nH]c2ccccc12)C(=O)N[C@@H](CCCCN)C(=O)N[C@@H](CCCCN)C(=O)NCC(=O)N[C@@H](Cc1c[nH]c2ccccc12)C(=O)N[C@@H](Cc1c[nH]c2ccccc12)C(=O)N[C@@H](CCCCN)C(=O)N[C@@H](Cc1c[nH]c2ccccc12)C(=O)N[C@@H](Cc1ccccc1)C(=O)N[C@@H](CCCNC(=N)N)C(N)=O [Indopt 8] (H-ILKWKKGWWKWFR-NH2)	4 µM (≈ 7.45 µg/mL)	8	16	
CC[C@H](C)[C@H](N)C(=O)N[C@@H](CC(C)C)C(=O)N[C@@H](CCCCN)C(=O)N[C@@H](Cc1c[nH]c2ccccc12)C(=O)N[C@@H](CCCCN)C(=O)N[C@@H](CCCNC(=N)N)C(=O)N[C@@H](CCCCN)C(=O)N[C@@H](Cc1c[nH]c2ccccc12)C(=O)N[C@@H](Cc1c[nH]c2ccccc12)C(=O)N[C@@H](CCCCN)C(=O)N[C@@H](Cc1c[nH]c2ccccc12)C(=O)N[C@@H](CCCNC(=N)N)C(=O)N[C@@H](CCCNC(=N)N)C(N)=O [Indopt 9] (H-ILKWKRKWWKWRR-NH2)	1 (1) μM	4	16	
CC[C@H](C)[C@H](N)C(=O)N[C@@H](CC(C)C)C(=O)N[C@@H](CCCCN)C(=O)N[C@@H](Cc1c[nH]c2ccccc12)C(=O)N[C@@H](CCCCN)C(=O)N[C@H](C(=O)N[C@@H](CCCCN)C(=O)N[C@@H](Cc1c[nH]c2ccccc12)C(=O)N[C@@H](Cc1c[nH]c2ccccc12)C(=O)N[C@@H](CCCCN)C(=O)N[C@@H](Cc1c[nH]c2ccccc12)C(=O)N[C@@H](Cc1ccccc1)C(=O)N[C@@H](CCCNC(=N)N)C(N)=O)[C@@H](C)O [Indopt 11] (H-ILKWKTKWWKWFR-NH2)	2 µM (≈ 3.81 µg/mL)	4	16	
CC[C@H](C)[C@H](NC(=O)[C@H](CCCCN)NC(=O)[C@H](CCCNC(=N)N)NC(=O)[C@H](Cc1c[nH]c2ccccc12)NC(=O)[C@H](Cc1c[nH]c2ccccc12)NC(=O)[C@@H](N)CCCNC(=N)N)C(=O)N[C@@H](Cc1c[nH]c2ccccc12)C(=O)N[C@@H](CCCCN)C(=O)N[C@@H](Cc1c[nH]c2ccccc12)C(N)=O [LOP1] (H-RWWRKIWKW-NH2)	2 µM (≈ 2.89 µg/mL)	8	2 to 4	
CC[C@H](C)[C@H](NC(=O)[C@H](CCCNC(=N)N)NC(=O)[C@H](C)NC(=O)CNC(=O)[C@@H](N)CCCNC(=N)N)C(=O)N[C@H](C(=O)N[C@H](C(=O)N[C@H](C(=O)N[C@@H](CCCNC(=N)N)C(=O)N[C@H](C(=O)N[C@@H](C)C(=O)N[C@@H](CCCNC(=N)N)C(N)=O)C(C)C)[C@@H](C)CC)C(C)C)C(C)C [Peptide G2] (H-RGARIVVIRVAR-NH2)	32 µM (≈ 43.7 µg/mL)	32	16	
CC[C@H](C)[C@H](NC(=O)[C@H](CCCNC(=N)N)NC(=O)[C@H](C)NC(=O)[C@H](CCCNC(=N)N)NC(=O)[C@@H](N)CCCNC(=N)N)C(=O)N[C@H](C(=O)N[C@H](C(=O)N[C@H](C(=O)N[C@@H](CCCNC(=N)N)C(=O)N[C@H](C(=O)N[C@@H](C)C(=O)N[C@@H](CCCNC(=N)N)C(N)=O)C(C)C)[C@@H](C)CC)C(C)C)C(C)C [Peptide R2] (H-RRARIVVIRVAR-NH2)	32 µM (≈ 46.8 µg/mL)	32	16	
CC[C@H](C)[C@H](NC(=O)[C@H](CCCNC(=N)N)NC(=O)[C@H](Cc1c[nH]c2ccccc12)NC(=O)[C@H](CC(C)C)NC(=O)[C@@H](N)CCCNC(=N)N)C(=O)N[C@H](C(=O)N[C@H](C(=O)N[C@H](C(=O)N[C@@H](CCCNC(=N)N)C(=O)N[C@H](C(=O)N[C@@H](C)C(=O)N[C@@H](CCCNC(=N)N)C(N)=O)C(C)C)[C@@H](C)CC)C(C)C)C(C)C [Peptide W3] (H-RLWRIVVIRVAR-NH2)				32 (≈ 49.2 µg/mL)
CC[C@H](C)[C@H](NC(=O)[C@H](CCCNC(=N)N)NC(=O)[C@H](Cc1c[nH]c2ccccc12)NC(=O)[C@H](CCCNC(=N)N)NC(=O)[C@@H](N)C(C)C)C(=O)N[C@@H](CCCNC(=N)N)C(=O)N[C@H](C(=O)N[C@@H](C)C(=O)N[C@H](C(=O)N[C@H](C(=O)N[C@@H](CCCNC(=N)N)C(=O)N[C@@H](C)C(N)=O)[C@@H](C)CC)C(C)C)C(C)C [S-W3] (H-VRWRIRVAVIRA-NH2)				16 (≈ 23.9 µg/mL)
CC[C@H](C)[C@H](NC(=O)[C@H](CCCNC(=N)N)NC(=O)[C@H](Cc1c[nH]c2ccccc12)NC(=O)[C@H](CCCNC(=N)N)NC(=O)[C@@H](N)CCCNC(=N)N)C(=O)N[C@H](C(=O)N[C@H](C(=O)N[C@H](C(=O)N[C@@H](CCCNC(=N)N)C(=O)N[C@H](C(=O)N[C@@H](CCCNC(=N)N)C(=O)N[C@@H](CCCNC(=N)N)C(N)=O)C(C)C)[C@@H](C)CC)C(C)C)C(C)C [Sub 3] (H-RRWRIVVIRVRR-NH2)	8 µM (≈ 13.3 µg/mL)	8	16	
